Measurements as given in the NIST ThermoML archive (doi:10.1021/acs.jced.5b00447).

Assay: xn = mol fraction of the nth substance listed
Conditions: for surface tension liquid-gas: wilhelmi plate; for viscosity / speed of sound / mass density: 100 kPa, Liquid; for viscosity: Capillary tube (Ostwald / Ubbelohde) method; for speed of sound: Frequency=3 MHz, Sing-around technique in a fixed-path interferometer; for mass density: Vibrating tube method

CN(C)CCN [2-dimethylamino-1-ethylamine] + O
Conditions | mass density [kg/m3] | speed of sound [m/s] | surface tension liquid-gas [mN/m] | viscosity [mPa·s]
293.15 K, x1 = 0.1002 | 975 | 1773.4 | 42.6 | 6.83
293.15 K, x1 = 0.2 | 952 | 1708.6 | 37.1 | 12.66
293.15 K, x1 = 0.3002 | 920 | 1605.4 | 32.9 | 10.5
293.15 K, x1 = 0.3996 | 895 | 1517.2 | 30.6 | 6.463
293.15 K, x1 = 0.5035 | 874 | 1456.6 | 29.4 | 3.875
293.15 K, x1 = 0.5995 | 858 | 1419.2 | 28.6 | 2.743
293.15 K, x1 = 0.7007 | 844 | 1387.2 | 27.9 | 1.965
293.15 K, x1 = 0.8002 | 833 | 1349.8 | 27.4 | 1.464
293.15 K, x1 = 0.8999 | 825 | 1328 | 26.9 | 1.162
293.15 K, x1 = 1 | 819 | 1319.6 | 26.4 | 0.988
303.15 K, x1 = 0.1002 | 970 | 1743.6 | 41.9 | 4.28
303.15 K, x1 = 0.2 | 943 | 1672.8 | 36.3 | 7.355
303.15 K, x1 = 0.3002 | 912 | 1568.6 | 32.2 | 6.268
303.15 K, x1 = 0.3996 | 886 | 1480.2 | 29.8 | 4.148
303.15 K, x1 = 0.5035 | 865 | 1419.2 | 28.6 | 2.709
303.15 K, x1 = 0.5995 | 849 | 1381.6 | 27.8 | 2.013
303.15 K, x1 = 0.7007 | 835 | 1349 | 27.1 | 1.51
303.15 K, x1 = 0.8002 | 824 | 1305.2 | 26.6 | 1.161
303.15 K, x1 = 0.8999 | 816 | 1288.7 | 26.1 | 0.94
303.15 K, x1 = 1 | 810 | 1279.3 | 25.8 | 0.819
313.15 K, x1 = 0.1002 | 963 | 1712.8 | 41.3 | 2.891
313.15 K, x1 = 0.2 | 935 | 1636.1 | 35.2 | 4.689
313.15 K, x1 = 0.3002 | 901 | 1531.3 | 31.2 | 4.105
313.15 K, x1 = 0.3996 | 877 | 1443.1 | 28.9 | 2.884
313.15 K, x1 = 0.5035 | 856 | 1381.8 | 27.8 | 2.019
313.15 K, x1 = 0.5995 | 840 | 1343.3 | 27 | 1.552
313.15 K, x1 = 0.7007 | 826 | 1310.3 | 26.3 | 1.192
313.15 K, x1 = 0.8002 | 814 | 1266.2 | 25.8 | 0.937
313.15 K, x1 = 0.8999 | 806 | 1249.2 | 25.3 | 0.773
313.15 K, x1 = 1 | 801 | 1239 | 25.2 | 0.693
323.15 K, x1 = 0.1002 | 955 | 1682 | 40.4 | 2.069
323.15 K, x1 = 0.2 | 926 | 1598.4 | 34.3 | 3.179
323.15 K, x1 = 0.3002 | 893 | 1493.1 | 30.6 | 2.853
323.15 K, x1 = 0.3996 | 868 | 1411.3 | 27.9 | 2.105
323.15 K, x1 = 0.5035 | 847 | 1343.5 | 27.1 | 1.519
323.15 K, x1 = 0.5995 | 831 | 1305.1 | 26.4 | 1.201
323.15 K, x1 = 0.7007 | 817 | 1271.7 | 25.7 | 0.967
323.15 K, x1 = 0.8002 | 806 | 1227 | 25.2 | 0.804
323.15 K, x1 = 0.8999 | 797 | 1209.1 | 24.7 | 0.686
323.15 K, x1 = 1 | 791 | 1199.3 | 24.5 | 0.596
